Measurements published in patent US8106055B2, “Substituted amide compounds” (Gruenenthal GmbH, priority 2007, dated 2012).

These compounds were tested against T1, human μ opiate receptor (Homo sapiens, UniProt P35372) (assay: Affinity for the human μ opiate receptor ([3H]-naloxone displacement, CHO-K1 receptor membrane preparation, SPA)). Conditions: 1.5 h, Table 2; test concentration 1 μM; read-out: μ receptor.
T1 construct: purchased PerkinElmer Life Sciences, Zaventem, Belgium RB-HOM; host or cells: CHO-K1 cells (membrane preparation)
T1 sequence (P35372 whole entry): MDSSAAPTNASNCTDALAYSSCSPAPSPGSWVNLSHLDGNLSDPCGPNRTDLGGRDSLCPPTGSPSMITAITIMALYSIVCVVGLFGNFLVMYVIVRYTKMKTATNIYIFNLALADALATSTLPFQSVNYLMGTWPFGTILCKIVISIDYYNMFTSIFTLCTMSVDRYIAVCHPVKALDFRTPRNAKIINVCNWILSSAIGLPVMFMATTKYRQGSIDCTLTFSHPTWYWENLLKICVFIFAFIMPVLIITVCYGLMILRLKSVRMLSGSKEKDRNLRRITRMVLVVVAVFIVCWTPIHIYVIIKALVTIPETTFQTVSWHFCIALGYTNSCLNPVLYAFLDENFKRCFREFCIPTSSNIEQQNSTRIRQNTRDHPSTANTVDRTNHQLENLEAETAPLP
Assay type: binding
How it was run: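 CHO-K1 membranes expressing human μ receptor incubated 90 min at room temperature with 1 nmol/l [3H]-naloxone and WGA-SPA beads in 50 mmol/l Tris-HCl, 0.06% BSA; 100 μmol/l naloxone defines non-specific binding. Values are % inhibition of specific binding at 1 μM; IC50 converted to Ki by Cheng-Prusoff.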
In the case of `O=C(COCCN(C1CC1)S(=O)(=O)c1c(Cl)cc(Cl)cc1Cl)NC1CCC(C(c2ccccc2)N2CCCC2)CC1` (stereo not shown) [Example 603, 2-{2-[cyclopropyl-(2,4,6-trichlorobenzenesulfonyl)-amino]-ethoxy}-N-[4-(phenylpyrrolidin-1-ylmethyl)-cyclohexyl]-acetamide], the inhibition at 1 µM is reported as 45%.
`CN(C)C(c1ccccc1)C1CCC(NC(=O)COC2CCCN(S(=O)(=O)c3c(Cl)cc(Cl)cc3Cl)C2)CC1` (stereo not shown) [Example 608, N-[4-(dimethylaminophenylmethyl)-cyclohexyl]-2-[1-(2,4,6-trichlorobenzenesulfonyl)-piperidin-3-yloxy]-acetamide] gave an inhibition at 1 µM of 89%.
`CN(C)C(c1ccccc1)C1CCC(NC(=O)COC2CCN(S(=O)(=O)c3c(Cl)cc(Cl)cc3Cl)C2)CC1` (stereo not shown) [Example 609, N-[4-(dimethylaminophenylmethyl)-cyclohexyl]-2-[1-(2,4,6-trichlorobenzenesulfonyl)-pyrrolidin-3-yloxy]-acetamide] showed an inhibition at 1 µM of 94%.
`CN(CCOCC(=O)NC1CCC(C(c2ccccc2)N2CCCC2)CC1)S(=O)(=O)c1c(Cl)cc(Cl)cc1Cl` (stereo not shown) [Example 606, 2-{2-[methyl-(2,4,6-trichlorobenzenesulfonyl)-amino]-ethoxy}-N-[4-(phenylpyrrolidin-1-yl-methyl)-cyclohexyl]-acetamide] showed an inhibition at 1 µM of 46%.

Same assay, conditions: Table 2; test concentration 1 μM
With `CN(C)C(c1ccccc1)C1CCC(NC(=O)COCC2CCCN2S(=O)(=O)c2c(Cl)cc(Cl)cc2Cl)CC1` (stereo not shown) [Example 613, N-[4-(Dimethylaminophenylmethyl)-cyclohexyl]-2-[1-(2,4,6-trichlorobenzenesulfonyl)-pyrrolidin-2-ylmethoxy]-acetamide] the μ receptor was 90 % inhibition.

Same assay, conditions: test concentration of 1 μM
With `CN(C)C(c1cccc(F)c1)C1CCC(NC(=O)COCC2CCCN(S(=O)(=O)c3ccccc3)C2)CC1` (stereo not shown) [Example 266] the “μ (binding on the μ opioid receptor, % inhibition)” value was 74%.
In the case of `COc1ccc(S(=O)(=O)N(C)CCOCC(=O)NCC2CCC(C(c3ccccc3)N(C)C)CC2)cc1` (stereo not shown) [Example 242], the “μ (binding on the μ opioid receptor, % inhibition)” value is reported as 77%.
In the case of `COc1ccc(S(=O)(=O)N2CCC(OCC(=O)NCC3CCC(C(c4ccc(Cl)cc4)N(C)C)CC3)C2)cc1OC` (stereo not shown) [Example 260], the “μ (binding on the μ opioid receptor, % inhibition)” value is reported as 76%.
`COc1cc(C)c(S(=O)(=O)N2CCC(OCC(=O)NC3CCC(C(c4cccc(F)c4)N(C)C)CC3)C2)c(C)c1` (stereo not shown) [Example 251] was tested, and the “μ (binding on the μ opioid receptor, % inhibition)” value was 77%.
With `CN(C)C(c1ccc(F)cc1)C1CCC(CCNC(=O)COC2CCCCC2N(C)S(=O)(=O)c2ccc(Cl)c(Cl)c2)CC1` (stereo not shown) [Example 244] the “μ (binding on the μ opioid receptor, % inhibition)” value was 81%.
`CN(C)C(c1ccc(Cl)cc1)C1CCC(CNC(=O)COCCN(C)S(=O)(=O)c2c(Cl)cccc2Cl)CC1` (stereo not shown) [Example 207] was tested, and the “μ (binding on the μ opioid receptor, % inhibition)” value was 77%.
With `COc1ccc(S(=O)(=O)N2CCCCC2CCOCC(=O)NCCC2CCC(C(c3cccc(F)c3)N(C)C)CC2)cc1` (stereo not shown) [Example 213] the “μ (binding on the μ opioid receptor, % inhibition)” value was 87%.
For `COc1cc(C)c(S(=O)(=O)N(C)CCOCC(=O)NCC2CCC(C(c3cccc(F)c3)N(C)C)CC2)c(C)c1` (stereo not shown) [Example 248], the “μ (binding on the μ opioid receptor, % inhibition)” value was 81%.
`CN(C)C(c1ccc(F)cc1)C1CCC(NC(=O)COC2CCCCC2N(C)S(=O)(=O)c2ccc(Cl)c(Cl)c2)CC1` (stereo not shown) [Example 256] was tested, and the “μ (binding on the μ opioid receptor, % inhibition)” value was 73%.
With `CN(C)C(c1cccc(F)c1)C1CCC(CCNC(=O)COC2CCN(S(=O)(=O)c3ccc(Cl)cc3)C2)CC1` (stereo not shown) [Example 247] the “μ (binding on the μ opioid receptor, % inhibition)” value was 75%.
With `Cc1ccc(S(=O)(=O)N(C)CCOCC(=O)NCC2CCC(C(c3ccc(Cl)cc3)N(C)C)CC2)cc1` (stereo not shown) [Example 273] the “μ (binding on the μ opioid receptor, % inhibition)” value was 68%.
`CN(C)C(c1cccc(F)c1)C1CCC(CCNC(=O)COCCN(C)S(=O)(=O)c2ccc(OC(F)(F)F)cc2)CC1` (stereo not shown) [Example 215] was tested, and the “μ (binding on the μ opioid receptor, % inhibition)” value was 85%.
In the case of `Cc1ccc(S(=O)(=O)N(C)CCOCC(=O)NC2CCC(C(c3cccs3)N(C)C)CC2)cc1` (stereo not shown) [Example 168, N-(4-((dimethylamino) (thiophen-2-yl)methyl)cyclohexyl)-2-(2-(N,4-dimethylphenylsulfamido)ethoxy)acetamide], the “μ (binding on the μ opioid receptor, % inhibition)” value is reported as 83%.
For `CN(C)C(c1cccc(F)c1)C1CCC(CNC(=O)COCC2CCCN(S(=O)(=O)c3ccccc3)C2)CC1` (stereo not shown) [Example 220], the “μ (binding on the μ opioid receptor, % inhibition)” value was 73%.
With `COc1ccc(S(=O)(=O)N2CCCCC2COCC(=O)NC2CCC(C(c3cccs3)N(C)C)CC2)cc1` (stereo not shown) [Example 243] the “μ (binding on the μ opioid receptor, % inhibition)” value was 79%.
`Cc1ccc(S(=O)(=O)N2CCC(OCC(=O)NCCC3CCC(C(c4cccc(F)c4)N(C)C)CC3)C2)cc1` (stereo not shown) [Example 216] was tested, and the “μ (binding on the μ opioid receptor, % inhibition)” value was 72%.
With `COc1cc(C)c(S(=O)(=O)N2CCC(OCC(=O)NCCC3CCC(C(c4cccc(F)c4)N(C)C)CC3)C2)c(C)c1C` (stereo not shown) [Example 253] the “μ (binding on the μ opioid receptor, % inhibition)” value was 76%.
For `COc1ccc(S(=O)(=O)N2CCC(OCC(=O)NCCC3CCC(C(c4cccc(F)c4)N(C)C)CC3)C2)cc1OC` (stereo not shown) [Example 262], the “μ (binding on the μ opioid receptor, % inhibition)” value was 82%.
With `CN(C)C(c1ccc(Cl)cc1)C1CCC(CCNC(=O)COCCN(C)S(=O)(=O)c2c(Cl)cccc2Cl)CC1` (stereo not shown) [Example 274] the “μ (binding on the μ opioid receptor, % inhibition)” value was 68%.
With `CN(C)C(c1cccc(F)c1)C1CCC(CNC(=O)COCCN(C)S(=O)(=O)c2ccc(F)cc2)CC1` (stereo not shown) [Example 229] the “μ (binding on the μ opioid receptor, % inhibition)” value was 79%.
With `CN(C)C(c1ccc(F)cc1)C1CCC(CNC(=O)COCC2CCCN2S(=O)(=O)c2ccc(Cl)c(Cl)c2)CC1` (stereo not shown) [Example 267] the “μ (binding on the μ opioid receptor, % inhibition)” value was 73%.
In the case of `Cc1ccc(S(=O)(=O)N(C)CCOCC(=O)NCCC2CCC(C(c3cccc(F)c3)N(C)C)CC2)cc1` (stereo not shown) [Example 240], the “μ (binding on the μ opioid receptor, % inhibition)” value is reported as 74%.
`Cc1ccc(S(=O)(=O)N(C)CCOCC(=O)NC2CCC(C(c3cccc(F)c3)N(C)C)CC2)cc1` (stereo not shown) [Example 226] was tested, and the “μ (binding on the μ opioid receptor, % inhibition)” value was 74%.
